The conditions of series [1]: pure C6PS; cited from earlier work.
A further series has as its target T1, FVa2 (Homo sapiens, UniProt P12259).
T1 construct: from tissue; host or cells: fresh frozen human plasma (American Red Cross Center, Durham, N.C.)
T1 sequence (P12259 29-737 limits assumed): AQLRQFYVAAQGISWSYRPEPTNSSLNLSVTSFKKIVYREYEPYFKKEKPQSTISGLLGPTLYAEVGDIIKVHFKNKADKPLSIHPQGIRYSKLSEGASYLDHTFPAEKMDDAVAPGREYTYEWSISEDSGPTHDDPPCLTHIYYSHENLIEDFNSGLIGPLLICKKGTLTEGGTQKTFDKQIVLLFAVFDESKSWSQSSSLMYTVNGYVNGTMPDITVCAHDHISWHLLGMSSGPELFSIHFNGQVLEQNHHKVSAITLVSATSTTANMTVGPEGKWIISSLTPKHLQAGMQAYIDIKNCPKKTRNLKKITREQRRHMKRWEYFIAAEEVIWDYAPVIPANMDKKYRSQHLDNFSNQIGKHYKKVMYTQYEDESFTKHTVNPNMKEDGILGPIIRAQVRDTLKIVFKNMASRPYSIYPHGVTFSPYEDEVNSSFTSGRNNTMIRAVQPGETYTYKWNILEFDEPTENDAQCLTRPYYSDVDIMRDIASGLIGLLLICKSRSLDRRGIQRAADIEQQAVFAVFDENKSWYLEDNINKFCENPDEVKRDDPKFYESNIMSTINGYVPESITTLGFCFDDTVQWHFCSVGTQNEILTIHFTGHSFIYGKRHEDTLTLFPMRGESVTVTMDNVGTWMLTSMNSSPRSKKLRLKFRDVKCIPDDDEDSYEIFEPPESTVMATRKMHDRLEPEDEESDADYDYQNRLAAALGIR
T1 sequence (P12259 1574-2224 limits assumed): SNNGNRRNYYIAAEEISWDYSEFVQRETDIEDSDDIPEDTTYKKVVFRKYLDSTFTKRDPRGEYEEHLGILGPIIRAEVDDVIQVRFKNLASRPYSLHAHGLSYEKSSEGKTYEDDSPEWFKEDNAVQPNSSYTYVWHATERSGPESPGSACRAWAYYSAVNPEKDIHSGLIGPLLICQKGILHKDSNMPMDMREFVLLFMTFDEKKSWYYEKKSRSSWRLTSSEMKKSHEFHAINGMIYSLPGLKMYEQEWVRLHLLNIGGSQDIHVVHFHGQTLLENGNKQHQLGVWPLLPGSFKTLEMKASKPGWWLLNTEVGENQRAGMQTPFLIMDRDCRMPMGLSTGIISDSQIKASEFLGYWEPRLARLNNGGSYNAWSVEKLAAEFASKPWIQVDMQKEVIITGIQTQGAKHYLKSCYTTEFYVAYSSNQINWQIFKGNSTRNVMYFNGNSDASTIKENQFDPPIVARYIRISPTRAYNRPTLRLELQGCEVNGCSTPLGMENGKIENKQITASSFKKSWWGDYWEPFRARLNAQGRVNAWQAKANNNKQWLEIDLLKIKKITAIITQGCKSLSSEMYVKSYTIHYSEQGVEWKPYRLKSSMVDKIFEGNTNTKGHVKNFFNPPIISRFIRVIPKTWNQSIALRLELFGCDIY
As to the kind of experiment: Native gel electrophoresis (Ferguson analysis), C6PS bound to FVa2. The series is classed as binding. To be noted: 400 μM C6PS. As to the method: Native Gel Electrophoresis. This method has been used to document the association of blood coagulation proteins in solution (Majumder, et al. (2002) supra; Majumder, et al. (2003) supra). A mixture of 1 nM FXa and 1 nM FVa was incubated at 37° C. for 2 minutes in the presence and absence of 400 μM C6PS and the two samples were run together with known marker proteins (270 kiloDalton-14.2 kiloDalton; SIGMA, St. Louis, Mo.) on five gels (5, 6, 6.5, 7, and 8% total acrylamide with bisacrylamide/acrylamide being 1/29 in all cases) in a BIORAD® MINI-PROTEAN® II minigel apparatus (BIORAD® Corp., Hercules, Calif.) and stained with colloidal Coomassie blue (Mitra, et al. (1994) supra). FXa and FVa, at these same concentrations and in the presence of 400 μM C6PS, were run separately as controls. Protein retardation coefficients, which depend to a good approximation only on the hydrodynamic size and shape of the protein, were determined for both the marker and unknown proteins (Ferguson (1964) Metabolism 13:985-1002). A log-log plot of the retardation coefficient against the molecular weights of the marker proteins produced a linear curve from which the molecular weight of the FVa•FXa complex was determined from its measured retardation coefficient (Bryan (1977) Anal. Biochem. 78(2):513-9). […]

For the molecule `CCCCCC(=O)OC[C@H](COP(=O)(O)OC[C@H](N)C(=O)O)OC(=O)CCCCC` [C6PS, 1,2-dicaproyl-sn-glycero-3-phospho-L-serine], the “monomers in minimal micelle predicted for C6PS” value in series [1] is given as ~200 monomers. The “molecules of C6PS bound to FVa2 from molecular mass” value on FVa2 turned out to be 4.2 molecules.

(Values after patent US7727736B2, “Soluble phospholipids for use in clotting factor assays” (The University of North Carolina at Chapel Hill, priority 2003, dated 2010).)
